Test results published in patent US20240139236A1, “COPPER HISTIDINATE COMPOSITIONS AND USES THEREOF” (Cyprium Therapeutics, Inc., priority 2021, published 2024).
Marks after values point to notes of the source that are not given here.

Test: Single subcutaneous dose [14C]-copper histidinate pharmacokinetic study in healthy adult male subjects
Type: in vivo, human
Settings: for Whole Blood:Serum Total Radioactivity Partitioning Ratio (Arithmetic Mean ± SD): n = 6; for Whole Blood:Serum Total Radioactivity Partitioning Ratio: 504 hour postdose, n = 1 (Subject 6)
Source text: The primary objective of this study was to quantitate total radioactivity (TRA) in whole blood, serum, and the eluted fractions of serum spiked with unlabeled copper histidinate (CuHis) from a size exclusion-high performance liquid chromatography (SEC-HPLC) column after a single subcutaneous (SC) administration of [^14C] CuHis in healthy adult male subjects. Further, the study was designed to determine the percentage of ^14C radioactivity associated with cellular components in whole blood over time (e.g., whole blood:serum partitioning concentration ratio).
To evaluate the safety and tolerability after a single SC administration of [^14C] CuHis in healthy adult male subjects. This was an open-label, single-dose, 1-period, PK study conducted at 1 study center in the USA. Six (6) healthy, adult male subjects were enrolled. Screening of subjects occurred within 28 days prior to dosing.
On Day 1, a single SC 3.0 mg (˜500 nCi) dose of [^14C]-CuHis was administered. Pharmacokinetic (PK) samples for determining TRA in whole blood and serum, and [^14C] CuHis in eluted fractions of serum spiked with unlabeled CuHis from an SEC-HPLC column were collected pre-dose and up to 168 hours post-dose (Subjects 1 to 5) or 504 hours post-dose (Subject 6).
A single dose of 3.0 mg (˜500 nCi) [^14C]-CuHis (equivalent to approximately 500 μg of elemental copper) for SC bolus injection was administered into the upper arm of each subject at Hour 0 on Day 1. Hour 0 corresponded to the start of the bolus SC administration on Day 1. Subjects were instructed not to rub the injection site(s).
Blood samples for determining TRA in whole blood and serum, and [^14C]-CuHis in eluted fractions of serum spiked with unlabeled CuHis from a SEC-HPLC column were collected predose and up to 168 hours postdose (Subjects 1 to 5) or up to 504 hours postdose (Subject 6).
TRA CuHis concentration equivalents in whole blood and serum were determined using accelerator mass spectrometry (AMS) at Pharmaron ABS, Inc. (Germantown, Maryland, USA). The lower limits of quantitation (LLOQ) for TRA CuHis concentration equivalents in whole blood and serum ranged from 0.711 to 0.770 ng eq CuHis/mL and 0.239 to 0.284 ng eq CuHis/mL in the different subjects, respectively.
[^14C]-CuHis concentrations in serum fractions from the SEC-HPLC column were determined using AMS at Pharmaron ABS, Inc. (Germantown, Maryland, USA). The LLOQ for [^14C]-CuHis concentrations in serum was 0.270 ng/mL.
Whole blood: serum TRA partitioning ratios were calculated at each postdose time point for each subject as the ratio between whole blood TRA CuHis concentration equivalents and serum TRA CuHis concentration equivalents. The following parameters were calculated for whole blood and serum TRA, and serum [^14C]-CuHis, when possible: AUC0-24, AUC0-last, AUC0-∞, AUC% extrap, Cmax, tmax, tlag, Kel, and t1/2. The AUC0-24 Ratio was calculated for serum [^14C]-CuHis versus serum TRA. CL/F and Vz/F were calculated for serum [^14C]-CuHis.
Whole blood and serum TRA CuHis concentration equivalents, serum [^14C]-CuHis concentrations, and whole blood:serum TRA partitioning ratios were listed and summarized by time point for all subjects in the PK population. Summary statistics, including sample size (n), arithmetic mean (Mean), standard deviation (SD), coefficient of variation (CV %), standard error of the mean (SEM), minimum, median, and maximum were calculated for the above data at each nominal time point.
Whole blood and serum TRA PK parameters, and serum [^14C]-CuHis PK parameters were listed for each subject and summarized for all subjects in the PK population. Summary statistics (n, Mean, SD, CV %, SEM, minimum, median, maximum, geometric mean [Geom Mean], and geometric CV % [Geom CV %]) were calculated for all PK parameters.

[1] = single SC 3.0 mg, arithmetic mean ± SD
[2] = single SC 3.0 mg, geometric mean (geometric CV%)
[3] = single SC 3.0 mg, median (minimum, maximum)
[4] = single SC 3.0 mg, median (minimum, maximum), listed as [^14C]-CuHis
[5] = single SC 3.0 mg, up to 168 h, Subject 6 excluded, geometric mean (geometric CV%)

Whole Blood:Serum Total Radioactivity Partitioning Ratio (Arithmetic Mean ± SD) (0.25 hour postdose): 0.6165 ± 0.1072
Whole Blood:Serum Total Radioactivity Partitioning Ratio (Arithmetic Mean ± SD) (0.5 hour postdose): 0.6410 ± 0.05811
Whole Blood:Serum Total Radioactivity Partitioning Ratio (Arithmetic Mean ± SD) (0.75 hour postdose): 0.6426 ± 0.05966
arithmetic mean serum CuHis concentration, peak (0.75 hours postdose): 63.47 ng/mL
Whole Blood:Serum Total Radioactivity Partitioning Ratio (Arithmetic Mean ± SD) (1 hour postdose): 0.6888 ± 0.06107
Whole Blood:Serum Total Radioactivity Partitioning Ratio (Arithmetic Mean ± SD) (1.5 hour postdose): 0.6728 ± 0.0542
Whole Blood:Serum Total Radioactivity Partitioning Ratio (Arithmetic Mean ± SD) (2 hour postdose): 0.6761 ± 0.03446
Whole Blood:Serum Total Radioactivity Partitioning Ratio (Arithmetic Mean ± SD) (4 hour postdose): 0.7010 ± 0.09398
Whole Blood:Serum Total Radioactivity Partitioning Ratio (Arithmetic Mean ± SD) (8 hour postdose): 0.5856 ± 0.1175
arithmetic mean serum TRA CuHis concentration equivalent, peak (8 hours postdose): 97.43 ng eq CuHis/mL
Whole Blood:Serum Total Radioactivity Partitioning Ratio (Arithmetic Mean ± SD) (16 hour postdose): 0.7144 ± 0.1134
Whole Blood:Serum Total Radioactivity Partitioning Ratio (Arithmetic Mean ± SD) (24 hour postdose): 0.6708 ± 0.08484
Whole Blood:Serum Total Radioactivity Partitioning Ratio (Arithmetic Mean ± SD) (36 hour postdose): 0.7498 ± 0.04878
Whole Blood:Serum Total Radioactivity Partitioning Ratio (Arithmetic Mean ± SD) (36 hour postdose, listed as [^14C]-CuHis): 0.7498
Whole Blood:Serum Total Radioactivity Partitioning Ratio (Arithmetic Mean ± SD) (48 hour postdose): 0.8329 ± 0.09811
Whole Blood:Serum Total Radioactivity Partitioning Ratio (Arithmetic Mean ± SD) (72 hour postdose): 1.209 ± 0.1925
Whole Blood:Serum Total Radioactivity Partitioning Ratio (Arithmetic Mean ± SD) (96 hour postdose): 1.612 ± 0.3461
Whole Blood:Serum Total Radioactivity Partitioning Ratio (Arithmetic Mean ± SD) (120 hour postdose): 1.853 ± 0.3512
Whole Blood:Serum Total Radioactivity Partitioning Ratio (Arithmetic Mean ± SD) (144 hour postdose): 2.163 ± 0.3333
Whole Blood:Serum Total Radioactivity Partitioning Ratio (Arithmetic Mean ± SD) (168 hour postdose): 2.392 ± 0.222
Whole Blood:Serum Total Radioactivity Partitioning Ratio (Arithmetic Mean ± SD) (168 hour postdose, listed as [^14C]-CuHis): 2.392
arithmetic mean whole blood TRA CuHis concentration equivalents, highest level (168 hours postdose): 100.9 ng eq CuHis/mL
Whole Blood:Serum Total Radioactivity Partitioning Ratio: 2.160*
Whole Blood:Serum Total Radioactivity Partitioning Ratio (listed as [^14C]-CuHis): 2.16
serum TRA CuHis concentration equivalent (504 hours postdose, Subject 6): 30.7 ng eq CuHis/mL
whole blood TRA CuHis concentration equivalent (504 hours postdose, Subject 6): 66.3 ng eq CuHis/mL
exposure to TRA (AUC0-last) higher in whole blood than in serum (by 168 hours postdose): approximately 29%
exposure to TRA (AUC0-24) lower in whole blood than in serum (first 24 hours postdose): approximately 34%
exposure to TRA in the serum associated with [14C]-CuHis (first 24 hours postdose): Approximately 9%
distribution phase half-life, serum [14C]-CuHis (initial rapid decrease after peak, estimated): 2 to 3 h
peak exposure to TRA (Cmax), whole blood compared with serum (single SC 3.0 mg): similar
AUC% extrap, serum [14C]-copper histidinate [1]: 12.37 ± 8.3964 [n = 5]^e %
AUC% extrap, serum total radioactivity [1]: 58.34 ± 12.677 [n = 5]^c %
CL/F, serum [14C]-copper histidinate [1]: 10.34 ± 1.6214 [n = 5]^e L/hr
Kel, serum [14C]-copper histidinate [1]: 0.0166 ± 0.01512 [n =5]^e 1/hr
Kel, serum total radioactivity [1]: 0.003278 ± 0.001588 [n = 5]^c 1/hr
t1/2, serum [14C]-copper histidinate (terminal elimination phase) [1]: 74.842 ± 49.1558 [n = 5]^e hr
t1/2, serum [14C]-copper histidinate (terminal elimination phase) (single SC 3.0 mg, arithmetic mean ± SD, listed as [^14C]-CuHis): ~75 h
AUC0-24, serum [14C]-copper histidinate [2]: 185.6 (20.6) ng · hr/mL
AUC0-24, serum total radioactivity [2]: 1993 (21.4) [n = 6] ng eq CuHis · hr/mL
AUC0-24, whole blood total radioactivity [2]: 1315 (30.4) [n = 6] ng eq CuHis · hr/mL
AUC0-24 Ratio, serum [14C]-CuHis versus serum total radioactivity [2]: 0.09317 (19.5) [n = 6]
AUC0-last, serum [14C]-copper histidinate [2]: 249.3 (10.6) ng · hr/mL
AUC0-∞, serum [14C]-copper histidinate [2]: 296.0 (15.3) ng · hr/mL
Cmax, serum [14C]-copper histidinate [2]: 67.14 (35.9) ng/mL
Cmax, serum total radioactivity [2]: 95.78 (24.3) [n = 6] ng eq CuHis/mL
Cmax, whole blood total radioactivity [2]: 100.1 (14.8) [n = 6] ng eq CuHis/mL
AUC0-24 Ratio, serum [14C]-CuHis versus serum total radioactivity (single SC 3.0 mg, geometric mean (geometric CV%), listed as [^14C]-CuHis): 0.09317
tlag, serum [14C]-copper histidinate [3]: 0.00 (0.00, 0.00) [n = 6] hr
tlag, serum total radioactivity [3]: 0.00 (0.00, 0.00) [n = 6] hr
tlag, whole blood total radioactivity [3]: 0.00 (0.00, 0.00) [n = 6] hr
tmax, serum [14C]-copper histidinate [3]: 0.747 (0.50, 0.76) hr
tmax, serum total radioactivity [3]: 8.007 (7.99, 16.02) [n = 6] hr
tmax, whole blood total radioactivity [3]: 168.006 (144.01, 168.03) [n = 6] hr
tmax, serum [14C]-copper histidinate [4]: 0.75 h
tmax, serum total radioactivity [4]: ~8 h
tmax, whole blood total radioactivity [4]: ~168 h
SMILES: N[C@@H](Cc1c[nH]cn1)C(=O)O.N[C@@H](Cc1c[nH]cn1)C(=O)O.[Cu] [[^14C]-Copper Histidinate]
AUC0-∞, serum total radioactivity (single SC 3.0 mg, Subject 6 excluded, geometric mean (geometric CV%)): 23390 (25.7) [n = 5]^c ng eq CuHis · hr/mL
AUC0-last, serum total radioactivity [5]: 9390 (13.4) [n = 5]^c ng eq CuHis · hr/mL
AUC0-last, whole blood total radioactivity [5]: 12130 (15.3) [n = 5]^c ng eq CuHis · hr/mL
